Reference: patent US10488417B2, “Compounds for use as imaging agents” (United Arab Emirates University, priority 2014, dated 2019)

Columns and labels:
α-synuclein fibrils = target: T1, α-synuclein fibrils (Homo sapiens, UniProt P37840); assay: Congo red binding assay of aged α-synuclein; format: biochemical; conditions: all tested concentrations; fibril control shifts from 490 to 508 nm
T1 construct: GST (N, cleaved yes); made in house; host or cells: E. coli BL21
Experimental: CR is a dye with high affinity for amyloid fibrils. Congo red (20 μM) was prepared in PBS (pH 7.4) and filtered through a 0.45 μm filter. Samples of α-synuclein (5 μM), aged alone or with the compounds at different molar ratios, were mixed with Congo red (final concentration 5 μM), and the reaction samples were thoroughly mixed. The UV absorbance spectrum was recorded between 400 and 600 nm in a spectrophotometer (DU-800, Beckman-Coulter) using 10-mm quartz cuvettes (HellmaAnalytics-Germany). Congo red alone was used as blank.

monomeric α-synuclein = target: T2, monomeric α-synuclein (Homo sapiens, UniProt P37840); assay: NMR titration into monomeric α-synuclein; format: binding; conditions: stoichiometries of up to 6:1 compound: α-synuclein, 100 μM α-synuclein
T2 construct: made in house
Experimental: For NMR studies, recombinant ^15N-labeled α-synuclein was expressed and purified as previously described, resuspended in PBS buffer at pH 6.6. Two-dimensional ^1H-^15N HQSC spectra were acquired for α-synuclein at 100 μM concentration in the absence of Gn Rb1 and in the presence of increasing Gn Rb1: α-synuclein stoichiometries of 1:1, 4:1 and 6:1. Data were collected on a Bruker 900 MHz spectrometer equipped with a cold probe.

Structure (SMILES): CC(C)=CCC[C@](C)(O[C@@H]1O[C@H](CO[C@@H]2O[C@H](CO)[C@@H](O)[C@H](O)[C@H]2O)[C@@H](O)[C@H](O)[C@H]1O)[C@H]1CC[C@]2(C)[C@@H]1[C@H](O)C[C@@H]1[C@@]3(C)CC[C@H](O[C@@H]4O[C@H](CO)[C@@H](O)[C@H](O)[C@H]4O[C@@H]4O[C@H](CO)[C@@H](O)[C@H](O)[C@H]4O)C(C)(C)[C@@H]3CC[C@]12C [Gn Rb1, ginsenoside Rb1]
- absorption maximum of Congo red bound to α-synuclein samples (α-synuclein fibrils): ≤ 495 nm
- interaction with monomeric α-synuclein (two-dimensional NMR) (monomeric α-synuclein): does not interact significantly with monomeric α-synuclein
